Reference: patent US8637525B2, “Compounds for the reduction of beta-amyloid production” (Bristol-Myers Squibb Company, priority 2009, dated 2014)
pIC50: −log10 of the molar value.

Each compound was assayed on Aβ1-42 production (assay: Cellular assay for inhibition of Aβ1-42 production (H4 APP751 SWE clone 8.20)). Conditions: 19 h, H4 APP751 SWE clone 8.20 cells, 19 h incubation; class symbols; read-out: Activity Rating (Aβ42 cellular IC50).
Type: cell-based
Outline: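 Viewlux signal read-out; IC50 by curve fit. Sandwich: 565 anti-Aβ42 neoepitope (Wallac conjugate, 0.8 ng/well) + 26D6 anti-N-terminus (APC, 75 ng/well), in Tris-HCl 40 mM pH 7.4/0.2% BSA, o/n 4 °C. Cells exposed to compound 19 h, 37 °C, 5% CO2.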

| SMILES | pIC50 |
| --- | --- |
| COc1cc(Nc2nc3c(c(N4CC5(C4)OCCO5)n2)CCC3c2ccccc2)ccc1-n1cnc(Cl)c1 (stereo not shown) [Example 184, N-(4-(4-chloro-1H-imidazol-1-yl)-3-methoxyphenyl)-7-phenyl-4-(5,8-dioxa-2-azaspiro[3.4]octan-2-yl)-6,7-dihydro-5H-cyclopenta[d]pyrimidin-2-amine] | 7.00 to 8.00 |
| COc1cc(Nc2nc3c(c(N4CC(=O)C4)n2)CCC3c2ccccc2)ccc1-n1cnc(Cl)c1 (stereo not shown) [Example 185, 1-(2-(4-(4-chloro-1H-imidazol-1-yl)-3-methoxyphenylamino)-7-phenyl-6,7-dihydro-5H-cyclopenta[d]pyrimidin-4-yl)azetidin-3-one] | 7.00 to 8.00 |
| COc1cc(Nc2nc3c(c(N4CC(C)(C#N)C4)n2)CCC3c2ccc(F)cc2)ccc1-n1cnc(Cl)c1 (stereo not shown) [Example 186, 1-(2-(4-(4-chloro-1H-imidazol-1-yl)-3-methoxyphenylamino)-7-(4-fluorophenyl)-6,7-dihydro-5H-cyclopenta[d]pyrimidin-4-yl)-3-methylazetidine-3-carbonitrile] | 7.00 to 8.00 |
| CCOC1CN(c2nc(Nc3ccc(-n4cnc(Cl)c4)c(OC)c3)nc3c2CCC3c2ccc(F)cc2)C1 (stereo not shown) [Example 187, N-(4-(4-chloro-1H-imidazol-1-yl)-3-methoxyphenyl)-4-(3-ethoxyazetidin-1-yl)-7-(4-fluorophenyl)-6,7-dihydro-5H-cyclopenta[d]pyrimidin-2-amine] | 7.00 to 8.00 |
| COc1cc(Nc2nc3c(c(N4CC(C)(OC)C4)n2)CCC3c2ccc(F)cc2)ccc1-n1cnc(Cl)c1 (stereo not shown) [Example 191, N-(4-(4-chloro-1H-imidazol-1-yl)-3-methoxyphenyl)-7-(4-fluorophenyl)-4-(3-methoxy-3-methylazetidin-1-yl)-6,7-dihydro-5H-cyclopenta[d]pyrimidin-2-amine] | 7.00 to 8.00 |
| CNc1nc(Nc2ccc(-n3cnc(C)n3)c(OC)c2)nc2c1CCC2c1ccc(F)cc1F (stereo not shown) [Example 193, 7-(2,4-difluorophenyl)-N2-(3-methoxy-4-(3-methyl-1H-1,2,4-triazol-1-yl)phenyl)-N4-methyl-6,7-dihydro-5H-cyclopenta[d]pyrimidine-2,4-diamine] | 7.00 to 8.00 |
| CCNc1nc(Nc2ccc(-n3ncnc3C)c(F)c2)nc2c1CN(CC(F)F)CC2c1ccccc1 (stereo not shown) [Example 194, 6-(2,2-difluoroethyl)-N4-ethyl-N2-(3-fluoro-4-(5-methyl-1H-1,2,4-triazol-1-yl)phenyl)-8-phenyl-5,6,7,8-tetrahydropyrido[4,3-d]pyrimidine-2,4-diamine] | 7.00 to 8.00 |

Other lines, results leading:

| pIC50 | SMILES |
| --- | --- |
| 6.00 to 7.00 | CCNc1nc(Nc2ccc(-n3cnc(C)n3)c(F)c2)nc2c1CN(CC(F)F)CC2c1ccccc1 (stereo not shown) [Example 195B, 6-(2,2-difluoroethyl)-N4-ethyl-N2-(3-fluoro-4-(3-methyl-1H-1,2,4-triazol-1-yl)phenyl)-8-phenyl-5,6,7,8-tetrahydropyrido[4,3-d]pyrimidine-2,4-diamine] |
| 8.00 to 8.82 | CCNc1nc(Nc2ccc(-n3cnc(Cl)c3)c(OC)c2)nc2c1CN(CC(F)F)CC2c1ccccc1 (stereo not shown) [Example 197B, N4-ethyl-N2-(3-methoxy-4-(4-chloro-1H-13-imidazol-1-yl)phenyl)-8-phenyl-6-(2,2-difluoroethyl)-5,6,7,8-tetrahydropyrido[4,3-d]pyrimidine-2,4-diamine] |

Same assay, conditions: 19 h, H4 APP751 SWE clone 8.20 cells, 19 h incubation; read-out: Activity Rating (Aβ42 cellular IC50), numeric value

| SMILES | pIC50 |
| --- | --- |
| COc1cc(Nc2nc3c(c(N4CC5(CCCO5)C4)n2)CCC3c2ccccc2)ccc1-n1cnc(Cl)c1 (stereo not shown) [Example 188, N-(4-(4-chloro-1H-imidazol-1-yl)-3-methoxyphenyl)-7-phenyl-4-(5-oxa-2-azaspiro[3.4]octan-2-yl)-6,7-dihydro-5H-cyclopenta[d]pyrimidin-2-amine] | 7.72 |
| COc1cc(Nc2nc3c(c(N4CC(C)(F)C4)n2)CCC3c2ccc(F)cc2)ccc1-n1cnc(Cl)c1 (stereo not shown) [Example 190, N-(4-(4-chloro-1H-imidazol-1-yl)-3-methoxyphenyl)-4-(3-fluoro-3-methylazetidin-1-yl)-7-(4-fluorophenyl)-6,7-dihydro-5H-cyclopenta[d]pyrimidin-2-amine] | 7.43 |
| CCNc1nc(Nc2ccc(-n3cnc(C)n3)c(F)c2)nc2c1CN(CC(F)F)CC2c1ccccc1 (stereo not shown) [Example 195, 6-(2,2-difluoroethyl)-N4-ethyl-N2-(3-fluoro-4-(3-methyl-1H-1,2,4-triazol-1-yl)phenyl)-8-phenyl-5,6,7,8-tetrahydropyrido[4,3-d]pyrimidine-2,4-diamine] | 7.77 |

Next, values leading:

| pIC50 | SMILES |
| --- | --- |
| 7.02 | COc1cc(Nc2nc3c(c(N4CC(C)(OC)C4)n2)CCC3c2ccc(F)cc2)ccc1-n1cnc(Cl)c1 (stereo not shown) [Example 191B, N-(4-(4-chloro-1H-imidazol-1-yl)-3-methoxyphenyl)-7-(4-fluorophenyl)-4-(3-methoxy-3-methylazetidin-1-yl)-6,7-dihydro-5H-cyclopenta[d]pyrimidin-2-amine] |
| 6.76 | CCNc1nc(Nc2ccc(-n3ncnc3C)c(F)c2)nc2c1CN(CC(F)F)CC2c1ccccc1 (stereo not shown) [Example 194B, 6-(2,2-difluoroethyl)-N4-ethyl-N2-(3-fluoro-4-(5-methyl-1H-1,2,4-triazol-1-yl)phenyl)-8-phenyl-5,6,7,8-tetrahydropyrido[4,3-d]pyrimidine-2,4-diamine] |
| 7.27 | CCNc1nc(Nc2ccc(-n3cnc(Cl)c3)c(OC)c2)nc2c1CN(CC(F)(F)F)CC2c1ccccc1 (stereo not shown) [Example 196B] |
| 7.82 | CNc1nc(Nc2ccc(-n3cnc(C)n3)c(OC)c2)nc2c1CN(C)CC2c1ccc(F)cc1 (stereo not shown) [Example 198B, 8-(4-fluorophenyl)-N2-(3-methoxy-4-(3-methyl-1H-1,2,4-triazol-1-yl)phenyl)-N4,6-dimethyl-5,6,7,8-tetrahydropyrido[4,3-d]pyrimidine-2,4-diamine] |

Same assay, conditions: H4 APP751 SWE clone 8.20 cells, 19 h incubation; class symbols; read-out: Activity Rating (Aβ42 cellular IC50)

| pIC50 | SMILES |
| --- | --- |
| 8.00 to 8.82 | COc1cc(Nc2nc3c(c(N4CC(C)(O)C4)n2)CCC3c2ccc(F)cc2)ccc1-n1cnc(Cl)c1 (stereo not shown) [Example 189, 1-(2-(4-(4-chloro-1H-imidazol-1-yl)-3-methoxyphenylamino)-7-(4-fluorophenyl)-6,7-dihydro-5H-cyclopenta[d]pyrimidin-4-yl)-3-methylazetidin-3-ol] |
| 8.00 to 8.82 | COc1cc(Nc2nc3c(c(N4CC(C)(O)C4)n2)CCC3c2ccc(F)cc2)ccc1-n1cnc(Cl)c1 (stereo not shown) [Example 189A, 1-(2-(4-(4-chloro-1H-imidazol-1-yl)-3-methoxyphenylamino)-7-(4-fluorophenyl)-6,7-dihydro-5H-cyclopenta[d]pyrimidin-4-yl)-3-methylazetidin-3-ol] |
| 7.00 to 8.00 | COc1cc(Nc2nc3c(c(N4CC(C)(O)C4)n2)CCC3c2ccc(F)cc2)ccc1-n1cnc(Cl)c1 (stereo not shown) [Example 189B, 1-(2-(4-(4-chloro-1H-imidazol-1-yl)-3-methoxyphenylamino)-7-(4-fluorophenyl)-6,7-dihydro-5H-cyclopenta[d]pyrimidin-4-yl)-3-methylazetidin-3-ol] |
| 8.00 to 8.82 | CCNc1nc(Nc2ccc(-n3cnc(Cl)c3)c(OC)c2)nc2c1CN(CC(F)(F)F)CC2c1ccccc1 (stereo not shown) [Example 196A] |
| 7.00 to 8.00 | CCNc1nc(Nc2ccc(-n3cnc(Cl)c3)c(OC)c2)nc2c1CN(CC(F)(F)F)CC2c1ccccc1 (stereo not shown) [Example 196] |
| 7.00 to 8.00 | CNc1nc(Nc2ccc(-n3cnc(C)n3)c(OC)c2)nc2c1CN(C)CC2c1ccc(F)cc1 (stereo not shown) [Example 198, 8-(4-fluorophenyl)-N2-(3-methoxy-4-(3-methyl-1H-1,2,4-triazol-1-yl)phenyl)-N4,6-dimethyl-5,6,7,8-tetrahydropyrido[4,3-d]pyrimidine-2,4-diamine] |

Same assay, conditions: H4 APP751 SWE clone 8.20 cells, 19 h incubation; read-out: Activity Rating (Aβ42 cellular IC50), numeric value

| SMILES | pIC50 |
| --- | --- |
| COc1cc(Nc2nc3c(c(N4CC(C)(OC)C4)n2)CCC3c2ccc(F)cc2)ccc1-n1cnc(C)n1 (stereo not shown) [Example 192, 7-(4-fluorophenyl)-4-(3-methoxy-3-methylazetidin-1-yl)-N-(3-methoxy-4-(3-methyl-1H-1,2,4-triazol-1-yl)phenyl)-6,7-dihydro-5H-cyclopenta[d]pyrimidin-2-amine] | 7.19 |
| CCNc1nc(Nc2ccc(-n3cnc(Cl)c3)c(OC)c2)nc2c1CN(CC(F)F)CC2c1ccccc1 (stereo not shown) [Example 197, N4-ethyl-N2-(3-methoxy-4-(4-chloro-1H-13-imidazol-1-yl)phenyl)-8-phenyl-6-(2,2-difluoroethyl)-5,6,7,8-tetrahydropyrido[4,3-d]pyrimidine-2,4-diamine] | 7.80 |

Next, values leading:

| pIC50 | SMILES |
| --- | --- |
| 6.77 | COc1cc(Nc2nc3c(c(N4CC(C)(OC)C4)n2)CCC3c2ccc(F)cc2)ccc1-n1cnc(C)n1 (stereo not shown) [Example 192A, 7-(4-fluorophenyl)-4-(3-methoxy-3-methylazetidin-1-yl)-N-(3-methoxy-4-(3-methyl-1H-1,2,4-triazol-1-yl)phenyl)-6,7-dihydro-5H-cyclopenta[d]pyrimidin-2-amine] |
| 7.80 | COc1cc(Nc2nc3c(c(N4CC(C)(OC)C4)n2)CCC3c2ccc(F)cc2)ccc1-n1cnc(C)n1 (stereo not shown) [Example 192B, 7-(4-fluorophenyl)-4-(3-methoxy-3-methylazetidin-1-yl)-N-(3-methoxy-4-(3-methyl-1H-1,2,4-triazol-1-yl)phenyl)-6,7-dihydro-5H-cyclopenta[d]pyrimidin-2-amine] |
| 7.59 | CCNc1nc(Nc2ccc(-n3cnc(C)n3)c(F)c2)nc2c1CN(CC(F)F)CC2c1ccccc1 (stereo not shown) [Example 195A, 6-(2,2-difluoroethyl)-N4-ethyl-N2-(3-fluoro-4-(3-methyl-1H-1,2,4-triazol-1-yl)phenyl)-8-phenyl-5,6,7,8-tetrahydropyrido[4,3-d]pyrimidine-2,4-diamine] |
| 7.22 | CCNc1nc(Nc2ccc(-n3cnc(Cl)c3)c(OC)c2)nc2c1CN(CC(F)F)CC2c1ccccc1 (stereo not shown) [Example 197A, N4-ethyl-N2-(3-methoxy-4-(4-chloro-1H-13-imidazol-1-yl)phenyl)-8-phenyl-6-(2,2-difluoroethyl)-5,6,7,8-tetrahydropyrido[4,3-d]pyrimidine-2,4-diamine] |
